From patent US20160122386A1, “V1A RECEPTOR AGONISTS” (FERRING B.V., priority 2014, published 2016)
Starred links: 1 amine or outer side, 2 acyl side, 3 side chain; linkers in the order of their positions; H or OH if unused. Positions of bridges follow the written chain, without caps; N, C: chain ends. Non-standard residues stand in square brackets, D forms with d. Residues, ends and D or L forms follow the SMILES beside them. Chains are numbered I, II in the order given. *: point of attachment. Orn((CH2)6NH2) = O=C([C@H](CCCNCCCCCCN[*:3])N[*:1])[*:2]; X3 = O=C([C@H](CCCNCCCCN[*:3])N[*:1])[*:2]; Glutaryl = O=C(CCCC(=O)[*:2])[*:1]; Suc = O=C(CCC(=O)[*:2])[*:1]; PhAc = O=C(Cc1ccccc1)*

Biological target: T1, human V1aR (Homo sapiens, UniProt P37288)
T1 construct: expressed in transfected cells
Assay: Agonist activity at vasopressin V1a receptors, cell-based FLIPR calcium assay
Details: for Emax: read-out: Efficacy Avg. (%)
Experimental: Efficacy (% MPE) is also determined as the percentage of maximal possible effect. This agonist assay utilizes cells from a stable cell line (HEK-flpin) expressing the vasopressin V1a receptor. Intracellular calcium increase in response to agonist is measured through real-time fluorescence of an intracellular calcium-sensitive dye. Cells are exposed to varying concentrations of test agonist compounds whereupon release of intracellular calcium is measured to determine the agonist potency and efficacy.
The cell line stably expresses the lacZ-Zeocin™ fusion gene and is designed for use with the Flp-In™ expression vector containing the gene of interest and the Flp recombinase expression plasmid, pOG44. The cell line contains a single integrated Flp Recombination Target (FRT) site from pFRT/lacZeo or pFRT/lacZeo2. To generate the HEK-flpin cell line stably expressing the human V1aR, the cells were co-transfected with the Flp-In™ expression vector containing the gene of interest (pcDNA5/FRT-hV1aR) and the Flp recombinase expression plasmid pOG44. Flp recombinase mediates insertion of the Flp-In™ expression vector into the genome at the integrated FRT site through site-specific DNA recombination. Stable cell lines expressing the hV1aR from the Flp-In™ expression vector can be generated by selection using hygromycin B. See Life Technologies/Invitrogen manual, Growth and Maintenance of Flp-In™ Cell Lines, Version E, published Feb.
Efficacy of this compound was set to be 100%. A stock solution of 5 mM was made up in DMSO and stored at −20° C.
HEK-flpin-hV1aR, cmcqV1aR, dV1aR and pV1aR cells were maintained in DMEM containing 10% (v/v) FBS-HI, 4 mM GlutaMAX™-I, 25 μg/mL Hygromycin B at 37° C. under 5% CO2 in a humidified atmosphere. Subculture was achieved by splitting semi-confluent cultures 1:3 to 1:6.
All compounds were made up in 100% DMSO at 10 mM stock concentrations and stored at −20° C. The compounds were allowed to thaw just before the assay. […] Typical dilution procedure of 10× final assay concentration involved a 1:100 top dilution (e.g., 2 μl Stock into 198 μl dilution medium) followed by half-log serial dilutions (e.g., 25.3 μl into 54.7 μl dilution medium supplemented with 1% DMSO (v/v)). (Dilution media consisted of phenol-red free DMEM containing 10% FBS-HI, 4 mM GlutaMAX™-I). […] The final DMSO concentration in the assay was 0.1%.
Loading Buffer was prepared by dissolving 1 vial of Calcium 4 Assay reagent in 100 mL of 1× HBSS-20 mM Hepes buffer.
The cells were loaded with Loading Buffer as follows. Cell plates were removed from the incubator and 20 μl of Loading Buffer containing probenecid (2.5 mM) was added to each well. The cells were incubated for 1 hr at 37° C. under 5% CO2 in a humidified atmosphere. The calcium image was obtained as follows.
The cell plates were transferred to FLIPR Tetra, along with a 384 well V-bottom plate pre-loaded with half-log concentrations of test compounds at 10× final test concentrations. The remaining steps of the assay were carried forward by FLIPR Tetra. A baseline reading was taken at 1-second (s) intervals for 5s followed by the addition of 5 μl of 10× compounds (test, reference, or Blank). The agonist-induced fluorescence signal was then measured for 180 s with initial 120 readings at 1-second intervals followed by 20 readings at 3-second intervals. Overall, each well in the FLIPR assay was composed of the following components in a total volume of 50 μl: 20 μl cells; 20 μl Calcium 4 Loading Buffer; […] 10× test or reference compound.

T1 sequence (P37288 whole entry): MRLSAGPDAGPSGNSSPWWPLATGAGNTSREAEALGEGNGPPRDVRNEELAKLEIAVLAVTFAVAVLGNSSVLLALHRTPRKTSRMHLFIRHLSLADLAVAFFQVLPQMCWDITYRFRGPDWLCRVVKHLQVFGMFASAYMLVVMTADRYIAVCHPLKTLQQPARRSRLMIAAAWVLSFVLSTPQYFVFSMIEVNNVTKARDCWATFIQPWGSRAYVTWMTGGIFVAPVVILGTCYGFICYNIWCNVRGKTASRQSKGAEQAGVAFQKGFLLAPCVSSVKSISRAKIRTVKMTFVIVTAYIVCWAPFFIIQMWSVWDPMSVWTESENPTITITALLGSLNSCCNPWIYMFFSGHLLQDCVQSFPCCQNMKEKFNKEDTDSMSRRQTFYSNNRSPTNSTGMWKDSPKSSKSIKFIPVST

CC[C@H](C)[C@@H]1NC(=O)[C@H](Cc2ccccc2)NC(=O)[C@@H](N)CSSC[C@@H](C(=O)N2CCC[C@H]2C(=O)N[C@@H](CCCNCCCCCCNC(=O)CCC(=O)NCCCC[C@H](NC(=O)[C@H](CCCNC(=N)N)NC(=O)[C@@H]2CCCN2C(=O)[C@H](CCCNC(=N)N)NC(=O)[C@H](CC(N)=O)NC(=O)[C@H](CCC(N)=O)NC(=O)[C@H](Cc2ccccc2)NC(=O)[C@@H](Cc2ccc(OC)cc2)NC(=O)Cc2ccccc2)C(N)=O)C(=O)NCC(N)=O)NC(=O)[C@H](CC(N)=O)NC(=O)[C@H](CCC(N)=O)NC1=O [Compound 1] (I: H-CFIQNCP[Orn((CH2)6NH2)]G-NH2 / II: PhAc-[dY](Me)FQNRPRK-NH2; disulfide I:1-I:6; linker I:8-II:8 via Suc)
EC50: 1 nM
Emax: 30%

CC[C@H](C)[C@@H]1NC(=O)[C@H](Cc2ccccc2)NC(=O)[C@@H](N)CSSC[C@@H](C(=O)N2CCC[C@H]2C(=O)N[C@@H](CCCNCCCCCNC(=O)CC[C@H](NC(=O)[C@H](CCCNC(=N)N)NC(=O)[C@@H]2CCCN2C(=O)[C@H](C)NC(=O)[C@H](CC(N)=O)NC(=O)[C@H](CCC(N)=O)NC(=O)[C@H](Cc2ccccc2)NC(=O)[C@@H](Cc2ccc(OC)cc2)NC(=O)Cc2ccccc2)C(N)=O)C(=O)NCC(N)=O)NC(=O)[C@H](CC(N)=O)NC(=O)[C@H](CCC(N)=O)NC1=O [Compound 2]
EC50: 0.69 nM
Emax: 52%

CC[C@H](C)[C@@H]1NC(=O)[C@H](Cc2ccccc2)NC(=O)[C@@H](N)CSSC[C@@H](C(=O)N2CCC[C@H]2C(=O)N[C@@H](CCCNCCCCNC(=O)CCCC(=O)NCCCC[C@H](NC(=O)[C@H](CCCNC(=N)N)NC(=O)[C@@H]2CCCN2C(=O)[C@H](CCCNC(=N)N)NC(=O)[C@H](CC(N)=O)NC(=O)[C@H](CCC(N)=O)NC(=O)[C@H](Cc2ccccc2)NC(=O)[C@@H](Cc2ccc(OC)cc2)NC(=O)Cc2ccccc2)C(N)=O)C(=O)NCC(N)=O)NC(=O)[C@H](CC(N)=O)NC(=O)[C@H](CCC(N)=O)NC1=O [Compound 3] (I: H-CFIQNCP[X3]G-NH2 / II: PhAc-[dY](Me)FQNRPRK-NH2; disulfide I:1-I:6; linker I:8-II:8 via Glutaryl)
EC50: 2.9 nM
Emax: 39%

CC[C@H](C)[C@@H]1NC(=O)[C@H](Cc2ccccc2)NC(=O)[C@@H](N)CSSC[C@@H](C(=O)N2CCC[C@H]2C(=O)N[C@@H](CCCNCCCCCCNC(=O)CC[C@H](NC(=O)[C@H](CCCNC(=N)N)NC(=O)[C@@H]2CCCN2C(=O)[C@H](C)NC(=O)[C@H](CC(N)=O)NC(=O)[C@H](CCC(N)=O)NC(=O)[C@H](Cc2ccccc2)NC(=O)[C@@H](Cc2ccc(OC)cc2)NC(=O)Cc2ccccc2)C(N)=O)C(=O)NCC(N)=O)NC(=O)[C@H](CC(N)=O)NC(=O)[C@H](CCC(N)=O)NC1=O [Compound 4]
EC50: 1.5 nM
Emax: 24%

CC[C@H](C)[C@@H]1NC(=O)[C@H](Cc2ccccc2)NC(=O)[C@@H](N)CSSC[C@@H](C(=O)N2CCC[C@H]2C(=O)N[C@@H](CCCNCCCCCCNC(=O)CCCCNC(=O)CC[C@H](NC(=O)[C@H](CCCNC(=N)N)NC(=O)[C@@H]2CCCN2C(=O)[C@H](C)NC(=O)[C@H](CC(N)=O)NC(=O)[C@H](CCC(N)=O)NC(=O)[C@H](Cc2ccccc2)NC(=O)[C@@H](Cc2ccc(OC)cc2)NC(=O)Cc2ccccc2)C(N)=O)C(=O)NCC(N)=O)NC(=O)[C@H](CC(N)=O)NC(=O)[C@H](CCC(N)=O)NC1=O [Compound 5]
EC50: 1.3 nM
Emax: 28%

CC[C@H](C)[C@@H]1NC(=O)[C@H](Cc2ccccc2)NC(=O)[C@@H](N)CSSC[C@@H](C(=O)N2CCC[C@H]2C(=O)N[C@@H](CCCNCCCCCC(=O)NCCCC[C@H](NC(=O)[C@H](CCCNC(=N)N)NC(=O)[C@@H]2CCCN2C(=O)[C@H](CCCNC(=N)N)NC(=O)[C@H](CC(N)=O)NC(=O)[C@H](CCC(N)=O)NC(=O)[C@H](Cc2ccccc2)NC(=O)[C@@H](Cc2ccc(OC)cc2)NC(=O)Cc2ccccc2)C(N)=O)C(=O)NCC(N)=O)NC(=O)[C@H](CC(N)=O)NC(=O)[C@H](CCC(N)=O)NC1=O [Compound 6]
EC50: 2.5 nM
Emax: 28%

CC[C@H](C)[C@@H]1NC(=O)[C@H](Cc2ccccc2)NC(=O)[C@@H](N)CSSC[C@@H](C(=O)N2CCC[C@H]2C(=O)N[C@@H](CCCNCCCC(=O)NCCCC[C@H](NC(=O)[C@H](CCCNC(=N)N)NC(=O)[C@@H]2CCCN2C(=O)[C@H](CCCNC(=N)N)NC(=O)[C@H](CC(N)=O)NC(=O)[C@H](CCC(N)=O)NC(=O)[C@H](Cc2ccccc2)NC(=O)[C@@H](Cc2ccc(OC)cc2)NC(=O)Cc2ccccc2)C(N)=O)C(=O)NCC(N)=O)NC(=O)[C@H](CC(N)=O)NC(=O)[C@H](CCC(N)=O)NC1=O [Compound 7]
EC50: > 10000 nM
Emax: 24%

CC[C@H](C)[C@@H]1NC(=O)[C@H](Cc2ccccc2)NC(=O)[C@@H](N)CSSC[C@@H](C(=O)N2CCC[C@H]2C(=O)N[C@@H](CCCNCCCCCC(=O)NCCCC[C@H](NC(=O)[C@H](CCCNC(=N)N)NC(=O)[C@@H]2CCCN2C(=O)[C@H](C)NC(=O)[C@H](CC(N)=O)NC(=O)[C@H](CCC(N)=O)NC(=O)[C@H](Cc2ccccc2)NC(=O)[C@@H](Cc2ccc(OC)cc2)NC(=O)Cc2ccccc2)C(N)=O)C(=O)NCC(N)=O)NC(=O)[C@H](CC(N)=O)NC(=O)[C@H](CCC(N)=O)NC1=O [Compound 8]
EC50: > 10000 nM
Emax: 50%

CC[C@H](C)[C@@H]1NC(=O)[C@H](Cc2ccccc2)NC(=O)[C@@H](N)CSSC[C@@H](C(=O)N2CCC[C@H]2C(=O)N[C@@H](CCCNCCCCCC(=O)NCCCC[C@H](NC(=O)[C@H](CCCNC(=N)N)NC(=O)[C@@H]2CCCN2C(=O)[C@H](CC(C)C)NC(=O)[C@H](CC(N)=O)NC(=O)[C@H](CCC(N)=O)NC(=O)[C@H](Cc2ccccc2)NC(=O)[C@@H](Cc2ccc(OC)cc2)NC(=O)Cc2ccccc2)C(N)=O)C(=O)NCC(N)=O)NC(=O)[C@H](CC(N)=O)NC(=O)[C@H](CCC(N)=O)NC1=O [Compound 9]
EC50: > 10000 nM
Emax: 34%

CC[C@H](C)[C@@H]1NC(=O)[C@H](Cc2ccccc2)NC(=O)[C@@H](N)CSSC[C@@H](C(=O)N2CCC[C@H]2C(=O)N[C@@H](CCCNCCCCNC(=O)CC[C@H](NC(=O)[C@H](CCCNC(=N)N)NC(=O)[C@@H]2CCCN2C(=O)[C@H](CCCNC(=N)N)NC(=O)[C@H](CC(N)=O)NC(=O)[C@H](CCC(N)=O)NC(=O)[C@H](Cc2ccccc2)NC(=O)[C@@H](Cc2ccc(OC)cc2)NC(=O)Cc2ccccc2)C(N)=O)C(=O)NCC(N)=O)NC(=O)[C@H](CC(N)=O)NC(=O)[C@H](CCC(N)=O)NC1=O [Compound 10]
EC50: > 10000 nM
Emax: 26%

CC[C@H](C)[C@@H]1NC(=O)[C@H](Cc2ccccc2)NC(=O)[C@@H](N)CSSC[C@@H](C(=O)N2CCC[C@H]2C(=O)N[C@@H](CCCNCCCCCNC(=O)CC[C@H](NC(=O)[C@H](CCCNC(=N)N)NC(=O)[C@@H]2CCCN2C(=O)[C@H](CO)NC(=O)[C@H](CC(N)=O)NC(=O)[C@H](CCC(N)=O)NC(=O)[C@H](Cc2ccccc2)NC(=O)[C@@H](Cc2ccc(OC)cc2)NC(=O)Cc2ccccc2)C(N)=O)C(=O)NCC(N)=O)NC(=O)[C@H](CC(N)=O)NC(=O)[C@H](CCC(N)=O)NC1=O [Compound 11]
EC50: 2.2 nM
Emax: 51%
